Article PMC5727045, “Anti-biofilm Properties of Bacterial Di-Rhamnolipids and Their Semi-Synthetic Amide Derivatives” (Frontiers in Microbiology, 2017)
≈ marks a conversion by molar mass, not a printed value. Entries after “also recorded” stand apart in the source; their conditions may differ.

Assays:
P. aeruginosa PAO1 [1] = experiment: Inhibition of biofilm formation, crystal violet; assay type: cell-based, Pseudomonas aeruginosa; conditions: for Biofilm formation (%): P. aeruginosa PAO1, 50 μg mL^-1
Source text: (§1) Test organisms for the antibacterial assays were obtained from the National Collection of Type Cultures (NCTC) and the American Type Culture Collection (ATCC). P. aeruginosa PAO1 NCTC 10332, S. aureus ATCC 25923 and S. aureus ATCC 43300 (MRSA) and S. marcescens ATCC 27117 were used in this study. One clinical isolate of P. aeruginosa DM50 with high ability to form biofilms and resistance to metronidazole, clindamycin and amoxicillin was also included ([Glisic et al., 2016]). Bacterial strains were grown in Luria Bertani (LB) broth at 37°C on a rotary shaker at 180 rpm.
(§2) Biofilm quantification assays were performed in 96-well microtiter plates using a crystal violet (CV) method to stain adherent cells ([Merritt et al., 2005]). Overnight cultures of bacteria were diluted to 5 × 10^7 cfu mL^-1 in LB and 100 μL was added to the wells in the presence of test compounds or DMSO (0.1%, v/v). Biofilms formed for 24 h at 37°C for P. aeruginosa and S. aureus, or 30°C for S. marcescens were washed and adherent cells stained with CV 0.1% (v/v). BFIC50 (concentration of compound that inhibited biofilm formation by 50%) was determined for each compound.
The effect of rhamnolipids on P. aeruginosa biofilm formation was examined additionally by introducing 3 h adhesion phase after inoculation with 5 × 10^7 cfu mL^-1 cells. Following adhesion, the supernatant was removed and, after two washing steps with phosphate buffered saline (PBS), test compounds or DMSO were applied and the biofilms were quantified after 24 h using CV. Each biofilm formation assay was performed in six wells and repeated at least three times.

P. aeruginosa DM50 [2] = experiment: Inhibition of biofilm formation, crystal violet; assay type: cell-based, Pseudomonas aeruginosa; conditions: P. aeruginosa DM50, 50 μg mL^-1
Source text: as §1, §2

S. aureus ATCC 25923 [3] = experiment: Inhibition of biofilm formation, crystal violet; assay type: cell-based, Staphylococcus aureus; conditions: S. aureus ATCC 25923, 50 μg mL^-1
Source text: as §1, §2

S. aureus MRSA [4] = experiment: Inhibition of biofilm formation, crystal violet; assay type: cell-based, Staphylococcus aureus
Source text: as §1, §2

S. marcescens ATCC 27117 [5] = experiment: Inhibition of biofilm formation, crystal violet; assay type: cell-based, Serratia marcescens; conditions: S. marcescens ATCC 27117, 50 μg mL^-1
Source text: as §1, §2

P. aeruginosa DM50 [6] = experiment: Biofilm dispersion assay, crystal violet; assay type: cell-based, Pseudomonas aeruginosa; conditions: P. aeruginosa DM50, 50 μg mL^-1
Source text: as §1
(§3) An overnight culture of P. aeruginosa was diluted to 5 × 10^7 cfu mL^-1 in LB and 100 μL was added to the wells in 96-well microtiter plates and incubated for 24 h at 37°C. After removal of the supernatant and two washing steps with PBS adherent cells were treated with different concentrations of rhamnolipids or derivatives for additional 24 h and the biofilms were quantified using CV as described above. Biofilm dispersion assays were performed in six wells and repeated three times.

P. aeruginosa PAO1 [7] = experiment: Biofilm dispersion assay, crystal violet; assay type: cell-based, Pseudomonas aeruginosa; conditions: for Biofilm biomass (%) remained after biofilm dispersion: P. aeruginosa PAO1, 50 μg mL^-1
Source text: as §1, §3

S. aureus ATCC 25923 [8] = experiment: Biofilm dispersion assay, crystal violet; assay type: cell-based, Staphylococcus aureus; conditions: S. aureus ATCC 25923, 50 μg mL^-1
S. aureus MRSA [9] = experiment: Biofilm dispersion assay, crystal violet; assay type: cell-based, Staphylococcus aureus
S. marcescens ATCC 27117 [10] = experiment: Biofilm dispersion assay, crystal violet; assay type: cell-based, Serratia marcescens; conditions: S. marcescens ATCC 27117, 50 μg mL^-1
Source text: as §1, §3

P. aeruginosa DM50 [11] = experiment: MIC, broth microdilution, planktonic cells; assay type: cell-based; conditions: Pseudomonas aeruginosa; P. aeruginosa DM50, 24 h incubation
Source text: as §1
(§4) The minimum inhibitory concentration (MIC) of rhamnolipids and their derivatives were determined according to standard broth microdilution assays recommended by the National Committee for Clinical Laboratory Standards (M07-A8).
(§5) Stock solutions of rhamnolipids and derivatives were prepared in DMSO (50 g L^-1, w/v). The highest concentration used was 500 mg L^-1. The inoculums were 10^5 colony forming units (cfu) mL^-1.

P. aeruginosa PAO1 [12] = experiment: MIC, broth microdilution, planktonic cells; assay type: cell-based; conditions: Pseudomonas aeruginosa; P. aeruginosa PAO1, 24 h incubation
Source text: as §1, §4, §5

S. aureus ATCC 25923 [13] = experiment: MIC, broth microdilution, planktonic cells; assay type: cell-based; conditions: Staphylococcus aureus, ATCC25923, 24 h, S. aureus ATCC 25923, 24 h incubation
Source text: as §1, §4, §5

S. aureus MRSA [14] = experiment: MIC, broth microdilution, planktonic cells; assay type: cell-based; conditions: Staphylococcus aureus, 24 h, 24 h incubation
Source text: as §1, §4, §5

S. marcescens ATCC 27117 [15] = experiment: MIC, broth microdilution, planktonic cells; assay type: cell-based; conditions: Serratia marcescens, ATCC27117; S. marcescens ATCC 27117, 24 h incubation
Source text: as §1, §4, §5

[16] = system: MRC5 human lung fibroblasts; experiment: Cytotoxicity assay, MTT; assay type: cell-based; conditions: concentrations up to 100 μg mL^-1, MTT, 48 h
Experimental: MRC5 human lung fibroblasts were obtained from the ATCC. Cells were maintained as monolayer cultures in RPMI-1640 supplemented with 100 mg L^-1 streptomycin, 100 U mL^-1 penicillin and 10% (v/v) FBS (all from Sigma, Munich, Germany). Cells were grown in a humidified atmosphere of 95% air and 5% CO2 at 37°C.
Cytotoxicity on MRC5 cells was evaluated with 3-(4,5-dimethylthiazol-2-yl)-2,5-diphenyltetrazolium bromide (MTT). The assay was carried out after 48 h of cell incubation in the media containing test compounds at different concentrations and the viability was measured as described ([Mihajlovic et al., 2012]). The results are presented as the percentage of the control (untreated cells) that was arbitrarily set to 100%.

P. aeruginosa PAO1-GFP = experiment: Anti-adhesion assay, GFP fluorescence; assay type: cell-based, Pseudomonas aeruginosa; conditions: 2 h
Experimental: Anti-adhesion assay was performed as previously described ([Shetye et al., 2014]) with some modifications. An overnight culture of P. aeruginosa PAO1 containing pBBR2-GFP ([da Silva et al., 2014]) was subcultured (initial OD600 = 0.02) in M9+/LB (95:5) containing gentamycin (80 mg L^-1), tetracycline (20 mg L^-1), and chloramphenicol (50 mg L^-1) at 37°C in a rotary shaker (200 rpm). After reaching OD600 = 0.1, aliquots (200 μL) were transferred to the wells of black polystyrene microtiter plate with rhamnolipids, derivatives or DMSO (control). After incubation at 37°C for 2 h, bacterial cultures were discarded, and the fluorescence of adherent cells was measured after addition of fresh M9+/LB (95:5) medium using Tecan Infinite 200 Microplate reader (Tecan Group Ltd., Switzerland, lex = 500 nm, lem = 540 nm). Background signal (M9+/LB (95:5) was subtracted from all the samples. Assays were repeated three times; inhibition values are the averages of six replicate wells from one experiment.

[17] = listed as Rha-TBDMS (Lysinibacillus sp. BV152.1)
[18] = 50 μg mL^-1, listed as Rha-TBDMS (Lysinibacillus sp. BV152.1)

Compound	MIC (P. aeruginosa DM50 [11]) [µg/mL]	MIC (P. aeruginosa PAO1 [12]) [µg/mL]	MIC (S. aureus ATCC 25923 [13]) [µg/mL]	MIC (S. aureus MRSA [14]) [µg/mL]	MIC (S. marcescens ATCC 27117 [15]) [µg/mL]	Biofilm formation (%) (P. aeruginosa PAO1 [1])	Biofilm formation (%) (P. aeruginosa DM50 [2])	Biofilm formation (%) (S. aureus ATCC 25923 [3])	Biofilm formation (%) (S. aureus MRSA [4]; 50 μg mL^-1)	Biofilm formation (%) (S. marcescens ATCC 27117 [5])	Biofilm biomass (%) remained after biofilm dispersion (P. aeruginosa DM50 [6]) [%]	Biofilm biomass (%) remained after biofilm dispersion (P. aeruginosa PAO1 [7]) [%]	Biofilm biomass (%) remained after biofilm dispersion (S. aureus ATCC 25923 [8]) [%]	Biofilm biomass (%) remained after biofilm dispersion (S. aureus MRSA [9]; 50 μg mL^-1) [%]	Biofilm biomass (%) remained after biofilm dispersion (S. marcescens ATCC 27117 [10]) [%]	Viability of human lung fibroblasts (MRC5) [16]	also measured
CCCCCCCC(CC(=O)O)OC(=O)CC(CCCCCCC)O[C@@H]1O[C@@H](C)[C@H](O[Si](C)(C)C(C)(C)C)[C@@H](O[Si](C)(C)C(C)(C)C)[C@H]1O[C@@H]1O[C@@H](C)[C@H](O[Si](C)(C)C(C)(C)C)[C@@H](O[Si](C)(C)C(C)(C)C)[C@H]1O[Si](C)(C)C(C)(C)C (some centres unmarked)	–	–	–	–	–	–	–	–	–	–	–	–	–	–	–	–	anti-biofilm formation activity (P. aeruginosa PAO1 [1]; P. aeruginosa PAO1): no anti-biofilm formation activity; Biofilm formation (%) (P. aeruginosa PAO1 [1]; [17]): 115 ± 10%; Biofilm formation (%) (P. aeruginosa DM50 [2]; [17]): 100 ± 8%; Biofilm formation (%) (S. aureus ATCC 25923 [3]; [17]): 88 ± 12%; Biofilm formation (%) (S. aureus MRSA [4]; [18]): 106 ± 4%; Biofilm formation (%) (S. marcescens ATCC 27117 [5]; [17]): 85 ± 1%; Biofilm biomass (%) remained after biofilm dispersion (P. aeruginosa DM50 [6]; [17]): 65 ± 1%; Biofilm biomass (%) remained after biofilm dispersion (P. aeruginosa PAO1 [7]; [17]): 80 ± 6%; Biofilm biomass (%) remained after biofilm dispersion (S. aureus ATCC 25923 [8]; [17]): 110 ± 22%; Biofilm biomass (%) remained after biofilm dispersion (S. aureus MRSA [9]; [18]): 101 ± 14%; Biofilm biomass (%) remained after biofilm dispersion (S. marcescens ATCC 27117 [10]; [17]): 99 ± 8%
CCCCCCCC(CC(=O)O)OC(=O)CC(CCCCCCC)O[C@@H]1O[C@@H](C)[C@H](O)[C@@H](O)[C@H]1O[C@@H]1O[C@@H](C)[C@H](O)[C@@H](O)[C@H]1O (stereo partly drawn) [di-Rha, Rha-Rha-C10-C10]	> 500	> 500	> 500	> 500	> 500	50 ± 3	109 ± 10	37 ± 4	44 ± 11	20 ± 5	135 ± 10	77 ± 3	80 ± 9	82 ± 7	193 ± 8	not affected; also recorded: not toxic	effect on biofilm formation when bacteria were left to attach prior to treatment (P. aeruginosa PAO1 [1]; P. aeruginosa PAO1, concentrations up to 50 μg mL^-1): stimulated biofilm formation; IC50 (P. aeruginosa PAO1 [1]; Pseudomonas aeruginosa, P. aeruginosa PAO1, 24 h, read-out: BFIC50 (concentration of compound that inhibited biofilm formation by 50%)): 75 µg/mL (≈ 115 µM); disruption of pre-formed biofilms (P. aeruginosa PAO1 [7]; 24 h old P. aeruginosa biofilms, 100 μg mL^-1): up to 20%
CCCCCCCC(CC(=O)O)OC(=O)CC(CCCCCCC)O[C@@H]1O[C@@H](C)[C@H](O[Si](C)(C)C(C)(C)C)[C@@H](O[Si](C)(C)C(C)(C)C)[C@H]1O[C@@H]1O[C@@H](C)[C@H](O[Si](C)(C)C(C)(C)C)[C@@H](O[Si](C)(C)C(C)(C)C)[C@H]1O[Si](C)(C)C(C)(C)C (some centres unmarked) [di-Rha-TBDMS (P. aeruginosa)]	> 500	> 500	> 500	> 500	> 500	95 ± 7	73 ± 6	88 ± 10	69 ± 11	117 ± 4	78 ± 10	76 ± 10	82 ± 3	120 ± 10	155 ± 3	not affected	anti-adhesion activity (P. aeruginosa PAO1-GFP): no significant anti-adhesion activity
